# B1: Wnt3a: human recombinant protein Wnt3a, Wnt ligand (protein, UniProt P56704 19-352, looked up)
# Protein Wnt-3a: SYPIWWSLAVGPQYSSLGSQPILCASIPGLVPKQLRFCRNYVEIMPSVAEGIKIGIQECQHQFRGRRWNCTTVHDSLAIFGPVLDKATRESAFVHAIASAGVAFAVTRSCAEGTAAICGCSSRHQGSPGKGWKWGGCSEDIEFGGMVSREFADARENRPDARSAMNRHNNEAGRQAIASHMHLKCKCHGLSGSCEVKTCWWSQPDFRAIGDFLKDKYDSASEMVVEKHRESRGWVETLRPRYTYFKVPTERDLVYYEASPNFCEPNPETGSFGTRDRTCNVSSHGIDGCDLLCCGRGHNARAERRREKCRCVFHWCCYVSCQECTRVYDVHTCK
# B2: Wnt7a: human recombinant protein Wnt7a, Wnt ligand (protein, UniProt O00755 32-349, looked up)
# Protein Wnt-7a: LGASIICNKIPGLAPRQRAICQSRPDAIIVIGEGSQMGLDECQFQFRNGRWNCSALGERTVFGKELKVGSREAAFTYAIIAAGVAHAITAACTQGNLSDCGCDKEKQGQYHRDEGWKWGGCSADIRYGIGFAKVFVDAREIKQNARTLMNLHNNEAGRKILEENMKLECKCHGVSGSCTTKTCWTTLPQFRELGYVLKDKYNEAVHVEPVRASRNKRPTFLKIKKPLSYRKPMDTDLVYIEKSPNYCEEDPVTGSVGTQGRACNKTAPQASGCDLMCCGRGYNTHQYARVWQCNCKFHWCCYVKCNTCSERTEMYTCK
# Columns and labels:
# [1] = tested on: cord blood-derived ECs co-cultured with astrocytes; design: method as in PMID 24392113; conditions: BBB model of cord blood-derived ECs co-cultured with astrocytes; cited from earlier work
# [2] = tested on: monolayers of CD34+-derived ECs (monoculture); assay: Endothelial permeability (Pe) to Lucifer yellow, ECs in monoculture; type: in vitro ADME, human; conditions: CD34+-derived ECs grown to confluence on filters for 6 days
# Protocol: (§1) Prior to the experiments, HEPES-buffered Ringer’s solution (in some cases EBM-2 medium) was added to empty wells of a 12-well plate (Costar). Filter inserts, containing confluent monolayers of CD34^+-ECs, were subsequently placed in the 12-well plate, filled with compound solution containing the fluorescent integrity marker Lucifer Yellow (20 µM; Life Technologies), and then placed on an orbital shaker. After 1 h, filter inserts were withdrawn from the receiver compartment. Aliquots from the donor solution were taken at the beginning and at the end of the experiments and the fluorescence was quantified. At least three inserts with cells and three without cells were tested in each permeability measurement. Fluorescence detection was carried out on a Synergy H1 multiplates reader (Biotek) using the following excitation/emission wavelength (nm) settings: 432/538; 490/516; 542/570 for Lucifer yellow, Fluorescein Na and Cy3-Human Serum Albumin and Human IgG respectively.
# (§2) To obtain a concentration-independent transport parameter, the clearance principle was used. The increment in cleared volume was calculated by dividing the amount of compound in the receiver compartment by the drug concentration in the donor compartment. The volume cleared was plotted versus time and the slope estimated by linear regression analysis. […] The PS-value for endothelial monolayer (PSe) was calculated. […]
# [3] = tested on: brain-like endothelial cells (BLECs); assay: Endothelial permeability (Pe) to Lucifer yellow, ECs co-cultured with pericytes (BLECs); type: in vitro ADME, human; conditions: day 6, n = 60
# Protocol: For co-culture experiments, pericytes were initially seeded on 60-mm gelatin-coated petri dishes and cultured in Dulbecco’s Modified Eagle’s Medium (DMEM) (Life Technologies) supplemented with 20% (v/v) FBS (Life Technologies), 2 mM L-glutamine, 50 µg/mL gentamycin and 1 ng/mL bFGF. The cells reached confluency after 2 days. 45×10^3 cells were seeded into each well of 12-well plates (Costar). […]
# Prior to the experiments, HEPES-buffered Ringer’s solution (in some cases EBM-2 medium) was added to empty wells of a 12-well plate (Costar). […] Aliquots from the donor solution were taken at the beginning and at the end of the experiments and the fluorescence was quantified. […] Fluorescence detection was carried out on a Synergy H1 multiplates reader (Biotek) using the following excitation/emission wavelength (nm) settings: 432/538; 490/516; 542/570 for Lucifer yellow, Fluorescein Na and Cy3-Human Serum Albumin and Human IgG respectively.
# as §2, with “compartment.” for “compartment. The volume cleared was plotted versus time and the slope estimated by linear regression analysis.”
# BLECs = assay: Expression of adhesion molecules by BLECs (FACS); type: cell-based, human; conditions: 10 ng/mL for 24 h
# Protocol: Adhesion molecule expression by BLECs was determined by FACS. For these experiments, CD34^+-ECs were cultured with pericytes for 6 days. After co-culture, transwells with BLEC monolayers were transferred to a new 12-well plate. BLECs were treated with 10 ng/mL TNF-α (Peprotech) for 24 h. Untreated BLECs were used as control. Cells were dissociated from the culture plate by exposure to Cell Dissociation Buffer (Life Technologies) for 3–5 min and gentle pipetting, centrifuged and finally resuspended in PBS supplemented with 5% (v/v) FBS. The single cell suspensions were aliquoted (2.0×10^5 cells per condition) and incubated with primary antibodies against human CD40, ICAM1, ICAM2, VCAM1, PECAM1 (Table S1). After the incubation with primary antibodies, cells were incubated with phycoerytrin (PE)-conjugated anti-rabbit (R&D Systems), and PE-conjugated anti-mouse (Santa Cruz) secondary antibodies. FACS Calibur (BD Biosciences) and BD Cell Quest Software (BD Biosciences) were used for the acquisition and analysis of the data.
# FACS analysis. Cells were dissociated from the culture plate by exposure to Cell Dissociation Buffer (Life Technologies) for 3-5 min and gentle pipetting, centrifuged and finally resuspended in PBS supplemented with 5% (v/v) FBS. […]
# β-catenin = assay: Wnt signaling experiments: β-catenin expression in monocultures of ECs; type: cell-based, human; conditions: EC monoculture; for expression of active β-catenin: after 1 day; for expression and nuclear localization of total β-catenin: day 3, BIO 0.5 µM, Wnt3a 6.25 ng/mL
# Protocol: For Wnt signaling experiments, mono- and co-culture systems were used. In monoculture, 8×10^4 CD34^+-ECs were seeded on the Matrigel-coated transwell insert. […] Co-cultures were prepared as described before. The CD34^+-derived ECs co-cultured with pericytes for 1 or 6 days were used in the signaling experiments. Agonist (0.5–5 µM BIO) was added into the basolateral compartment while antagonist (0.1–3 µM XAV939 (Selleckbio)) was added in the apical part of the transwell system.
# Immunostaining. Cells were fixed in cold methanol/acetone (50%/50% v/v) for 1 min or 4% (v/v) paraformaldehyde (Electron Microscopy Sciences, EMS) for 10 min at room temperature (see Table S1). After permeabilizing the cells with 0.1% (v/v) Triton X-100 (Sigma-Aldrich) for 5-10 min, whenever required, and blocking for 30 min with 1% (w/v) bovine serum albumin (BSA) solution (Sigma-Aldrich) or normal goat serum (10% (v/v), Sigma-Aldrich), the cells were incubated for 1 h with the primary monoclonal antibodies listed in Table S1, at room temperature. After washing, the cells were stained with a secondary antibody for 1 h in the dark at room temperature (Table S1). In each immunofluorescence experiment, an isotype-matched IgG control was used. The nuclei of cells was stained with 4',6-diamidino-2-phenylindole (DAPI; Sigma-Aldrich) or Hoescht reagent (ICN Pharmaceuticals). Cells were mounted using Mowiol (Sigma-Aldrich) containing an anti-fading agent (Dabco, Sigma-Aldrich) or cell-mounting medium from DAKO. Cells were examined with a Zeiss LSM 50 confocal microscope or with a Leica DMR fluorescence microscope (Leica Microsystems). In the last case, images were collected using a Cool SNAP RS Photometrics camera (Leica Microsystems) and were processed using Adobe Photoshop software 5.5 (Adobe systems).
# FACS analysis. Cells were dissociated from the culture plate by exposure to Cell Dissociation Buffer (Life Technologies) for 3-5 min and gentle pipetting, centrifuged and finally resuspended in PBS supplemented with 5% (v/v) FBS. The single cell suspensions were aliquoted (2.0×10^5 cells per condition), fixed with 4% (v/v) paraformaldehyde (PFA; EMS) or ice-cold absolute methanol and permeabilized with 0.1% (w/v) Triton X-100 (Fluka) when necessary. The cells were stained with antigen-specific primary antibodies (dilution ratios and list of antibodies are given on Table S1). After the incubation with primary antibodies, cells were incubated with phycoerytrin (PE)-conjugated anti-rabbit (R&D Systems), and PE-conjugated anti-mouse (Santa Cruz) secondary antibodies. FACS Calibur (BD Biosciences) and BD Cell Quest Software (BD Biosciences) were used for the acquisition and analysis of the data.
# CD34+-derived ECs [4] = assay: qRT-PCR of claudin-1 and LEF1 in ECs treated with Wnt ligands; type: cell-based, human; conditions: EC monoculture
# Protocol: (§3) For Wnt signaling experiments, mono- and co-culture systems were used. In monoculture, 8×10^4 CD34^+-ECs were seeded on the Matrigel-coated transwell insert. The cells were then incubated with agonists/ligands (6.25 ng/mL–100 ng/mL Wnt3A (R&D Systems), 6.25 ng/mL–250 ng/mL Wnt7A (Peprotech) or 0.5–5 µM BIO (Sigma)) for 1 or 5 days. Co-cultures were prepared as described before. The CD34^+-derived ECs co-cultured with pericytes for 1 or 6 days were used in the signaling experiments. Agonist (0.5–5 µM BIO) was added into the basolateral compartment while antagonist (0.1–3 µM XAV939 (Selleckbio)) was added in the apical part of the transwell system.
# Reverse transcription and quantitative real time polymerase chain reaction (qRT-PCR) analysis. CD34^+-ECs cultured in different conditions were homogenized in Trizol reagent (Life Technologies) and total RNA was extracted using the RNeasy Mini Kit (Qiagen), according to manufacturer’s instructions. In all cases, cDNA was prepared from 1 μg total RNA using Taqman Reverse transcription reagents (Applied Biosystems). Non-quantitative RT-PCR was performed using the conditions described in [4] and DNA migrated on a agarose gel electrophoresis (1.5%) with a low range DNA molecular weight marker (Euromedex) to visualize the sizes. Gels were then stained with gel red nucleic acid gel stain (Interchim) and visualized on a UV light transilluminator (Bio-Rad). Quantitative real time PCR (qRT-PCR) was performed using Power SYBR Green PCR Master Mix (Applied Biosystems) and the detection was carried out in a 7500 Fast Real-Time PCR System (Applied Biosystems). Quantification of target genes was performed relatively to the reference GAPDH gene: relative expression = 2^[-(Ctsample^-CtGADPH^)]. Primer sequences are given as supporting information (Table S2).
# [5] = tested on: monocultures of CD34+-derived ECs; assay: Wnt signaling experiments: paracellular permeability of treated EC monocultures; type: cell-based, human; conditions: Wnt3a 6.25 ng/mL
# Protocol: as §1
# To obtain a concentration-independent transport parameter, the clearance principle was used. The increment in cleared volume was calculated by dividing the amount of compound in the receiver compartment by the drug concentration in the donor compartment. The volume cleared was plotted versus time and the slope estimated by linear regression analysis. The slope of the clearance curve with inserts alone and inserts with cells is equal to PSf and PSt, respectively, where PS (microliters/minute) is the permeability surface area (square centimeter) product. The PS-value for endothelial monolayer (PSe) was calculated. To generate the endothelial permeability coefficient, Pe (cm/min), the PSe value was divided by the surface area of the filter (A in cm^2) insert using the following equation: Pe = [1/PSt−1/PSf]^−1/A. To assess possible adsorption to plastics and non-specific binding to cells, the mass balance (%) was calculated from the amount of compound recovered in both compartments at the end of the experiment divided by the total amount added in the donor compartment at time zero. For Pe determination, mass balance value should be between 80% and 120%.
# as §3
# CD34+-derived ECs [6] = assay: Immunostaining of claudin-1 in treated EC monocultures; type: cell-based, human; conditions: EC monoculture, day 6; BIO 0.5 µM, Wnt3a 6.25 ng/mL
# Protocol: as §3
# Immunostaining. Cells were fixed in cold methanol/acetone (50%/50% v/v) for 1 min or 4% (v/v) paraformaldehyde (Electron Microscopy Sciences, EMS) for 10 min at room temperature (see Table S1). After permeabilizing the cells with 0.1% (v/v) Triton X-100 (Sigma-Aldrich) for 5-10 min, whenever required, and blocking for 30 min with 1% (w/v) bovine serum albumin (BSA) solution (Sigma-Aldrich) or normal goat serum (10% (v/v), Sigma-Aldrich), the cells were incubated for 1 h with the primary monoclonal antibodies listed in Table S1, at room temperature. […] Cells were examined with a Zeiss LSM 50 confocal microscope or with a Leica DMR fluorescence microscope (Leica Microsystems). […]
# P-gp = P-gp (Homo sapiens, UniProt P08183); conditions: [3H]-vincristine sulphate 66.5 nM, 2 h; 25 μM verapamil or 0.5 μM elacridar
# [7] = long-term: 1 day of monoculture + 5 day of treatment, Wnt7a 6.25 ng/mL, BIO 0.5 µM
# Sequence of P-gp (P08183 whole entry): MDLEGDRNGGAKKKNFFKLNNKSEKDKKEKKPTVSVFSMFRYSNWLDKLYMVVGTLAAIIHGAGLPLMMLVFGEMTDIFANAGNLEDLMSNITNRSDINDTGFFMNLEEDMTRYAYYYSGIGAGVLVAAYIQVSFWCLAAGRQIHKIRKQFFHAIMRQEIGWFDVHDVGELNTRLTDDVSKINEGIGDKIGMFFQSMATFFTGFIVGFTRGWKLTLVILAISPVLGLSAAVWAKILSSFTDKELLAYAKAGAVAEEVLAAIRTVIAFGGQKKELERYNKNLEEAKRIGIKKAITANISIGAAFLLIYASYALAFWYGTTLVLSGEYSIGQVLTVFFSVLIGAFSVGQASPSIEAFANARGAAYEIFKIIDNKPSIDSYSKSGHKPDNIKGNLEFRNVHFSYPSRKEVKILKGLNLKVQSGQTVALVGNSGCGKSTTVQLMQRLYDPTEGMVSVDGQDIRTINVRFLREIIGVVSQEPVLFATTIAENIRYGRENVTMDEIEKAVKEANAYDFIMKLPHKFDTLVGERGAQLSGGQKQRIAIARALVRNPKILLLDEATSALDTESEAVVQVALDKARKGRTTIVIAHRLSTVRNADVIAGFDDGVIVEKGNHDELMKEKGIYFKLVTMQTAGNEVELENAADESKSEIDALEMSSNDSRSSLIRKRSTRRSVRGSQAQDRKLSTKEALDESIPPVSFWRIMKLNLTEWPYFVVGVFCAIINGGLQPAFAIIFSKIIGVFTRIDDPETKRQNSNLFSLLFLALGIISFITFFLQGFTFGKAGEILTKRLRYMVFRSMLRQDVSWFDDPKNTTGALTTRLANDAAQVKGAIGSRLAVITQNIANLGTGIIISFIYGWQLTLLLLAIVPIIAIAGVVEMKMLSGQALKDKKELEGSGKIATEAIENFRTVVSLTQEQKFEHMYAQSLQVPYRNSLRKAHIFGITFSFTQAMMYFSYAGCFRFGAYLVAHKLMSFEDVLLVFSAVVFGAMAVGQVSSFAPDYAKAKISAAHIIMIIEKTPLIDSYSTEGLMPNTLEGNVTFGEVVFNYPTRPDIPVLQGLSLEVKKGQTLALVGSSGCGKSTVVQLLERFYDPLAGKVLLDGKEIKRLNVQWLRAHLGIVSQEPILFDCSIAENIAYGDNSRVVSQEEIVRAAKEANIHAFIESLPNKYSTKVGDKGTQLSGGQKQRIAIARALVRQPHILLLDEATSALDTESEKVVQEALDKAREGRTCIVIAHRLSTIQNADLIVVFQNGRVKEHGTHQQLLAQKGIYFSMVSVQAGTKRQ
Molecule,expression of active β-catenin (β-catenin),expression and nuclear localization of total β-catenin (β-catenin),LEF1 gene expression (CD34+-derived ECs [4]),claudin-1 gene expression (CD34+-derived ECs [4]),"paracellular permeability to Lucifer Yellow versus untreated cells [5, 7]",localization of claudin-1 (CD34+-derived ECs [6]),further results
Lucifer yellow,–,–,–,–,–,–,Pe to Lucifer yellow [1]: 20.5 ×10⁻⁶ cm/s; permeability to Lucifer yellow [2]: 33.3 ×10⁻⁶ cm/s; permeability to Lucifer yellow [3]: 0.61±0.15×10^−3 cm/min
TNF-α,–,–,–,–,–,–,"expression of ICAM-1, ICAM-2, CD40 and VCAM-1 (BLECs): up-regulation"
O=C1Nc2cc(Br)ccc2/C1=C1/Nc2ccccc2/C1=N\O [BIO],increasing,increase,up-regulation,up-regulation,only observed after 5-day treatment,localization of claudin-1 at the cell-cell contacts,–
COc1cc2c(cc1OC)CN(CCc1ccc(NC(=O)c3cccc4c(=O)c5cccc(OC)c5[nH]c34)cc1)CC2 [elacridar],–,–,–,–,–,–,accumulation of vincristine in BLECs on inhibition of P-gp (P-gp): significant increase
B1,increasing,increase,up-regulation,up-regulation,statistical lower,localization of claudin-1 at the cell-cell contacts,"paracellular permeability to Lucifer Yellow versus untreated cells ([5]; short-term: 5 days of monoculture + 1 day of treatment, P<0.01, n = 4): statistical lower"
B2,–,–,–,–,only observed after 5-day treatment,–,–

# Source: article PMC4061029, “A Stable and Reproducible Human Blood-Brain Barrier Model Derived from Hematopoietic Stem Cells” (PLoS ONE, 2014)
